Laboratory results taken from patent EP0289450A1, “15-Alkyl-19-thio-androst-4-en-3,17 diones, process for their preparation and pharmaceutical compositions containing them” (SCHERING AKTIENGESELLSCHAFT, priority 1987, dated 1988).

Target: T1, Aromatase (Rattus norvegicus, UniProt P22443)
T1 construct: Infantile weibliche Ratten reagieren auf PMSG-Behandlung mit einheitlich erhöhter Steroidsynthese; from tissue; host or cells: living infantile female rats (whole animal); estradiol measured in serum by radioimmunoassay
T1 sequence (P22443 1-508): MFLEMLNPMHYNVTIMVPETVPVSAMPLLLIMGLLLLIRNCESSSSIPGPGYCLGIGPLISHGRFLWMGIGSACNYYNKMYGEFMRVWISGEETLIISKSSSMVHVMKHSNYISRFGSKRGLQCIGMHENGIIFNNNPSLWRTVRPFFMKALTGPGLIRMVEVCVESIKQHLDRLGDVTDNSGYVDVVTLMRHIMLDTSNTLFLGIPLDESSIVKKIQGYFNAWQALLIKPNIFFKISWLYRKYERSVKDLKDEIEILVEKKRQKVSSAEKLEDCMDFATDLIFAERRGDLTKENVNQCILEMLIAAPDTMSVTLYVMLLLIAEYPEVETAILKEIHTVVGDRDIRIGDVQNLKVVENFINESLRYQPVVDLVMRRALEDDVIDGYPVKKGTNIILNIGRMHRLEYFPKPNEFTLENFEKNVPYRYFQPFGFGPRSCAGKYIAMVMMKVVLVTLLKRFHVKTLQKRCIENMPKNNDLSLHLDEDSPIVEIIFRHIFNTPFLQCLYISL
Assay: PMSG (Pregnant Mare's Serum Gonadotropin) test: effect on PMSG-stimulated serum estradiol after oral application
Assay type: in vivo, Ratte
Settings: 10 mg/Tier 2 x p.o.; for Östradiol-Konzentration in: peripheral serum of PMSG-pretreated infantile female rats, 24 h after last PMSG application, mean ± standard deviation, n = 10; for relative Wirkstärke: relative potency versus compound A (= 1,0), by regression and covariance analysis, rat
Text: So konnte zum Beispiel im sogenannten PMSG (Pregnant Mare's Serum Gonadotropin)-Test [J. Steroid. Biochem. 7, (1976) 787] gezeigt werden, daß im Vergleich zu dem bekannten Aromatasehemmer 19-Methylthio-4-androsten-3,17-dion (A) die erfindungsgemäßen Verbindungen, wie zum Beispiel 15α-Ethyl-19-methylthio-4-androsten-3,17-dion (B), bei oraler Applikation eine stärkere Wirkung besitzen.
Infantile weibliche Ratten reagieren auf PMSG-Behandlung mit einheitlich erhöhter Steroidsynthese. Die Aromataseaktivität kann durch die Beeinflussung der PMSG-stimulierten Östrogenbildung gemessen werden.
Im PMSG-Test werden 21 Tage alte weibliche Ratten alle 2 Tage insgesamt 7 mal mit je 100 I.U. PMSG subkutan vorbehandelt. 1 Stunde vor und 8 Stunden nach der letzten PMSG-Applikation (d₁₂) erhalten die Tiere die Testsubstanz durch orale Applikation.
Die Kontrolltiere erhalten nur das Vehikel. 24 Stunden nach der letzten PMSG-Applikation werden die Tiere getötet. Im Serum wird Östradiol radioimmunologisch geprüft. Für jede Gruppe von 10 Tieren wird der Mittelwert der Östradiolkonzentration in nMol/l mit der Standardabweichung errechnet. Die Signifikanzen der Unterschiede zur Kontrollgruppe werden durch die Varianzanalyse geprüft.
Zur Ermittlung der relativen Wirkungsstärke der zu testenden Substanz im Vergleich zu der Vergleichssubstanz wird die Regressions- und Kovarianzanalyse durchgeführt. Ferner wird die prozentuale Hemmung gegen die PMSG-Kontrolle berechnet.

Structure (SMILES)	Östradiol-Konzentration in	relative Wirkstärke
CC[C@H]1CC(=O)[C@@]2(C)CC[C@H]3[C@@H](CCC4=CC(=O)CC[C@@]43CSC)[C@H]12 [B, 15α-Ethyl-19-methylthio-4-androsten-3,17-dion]	4,05 ± 0,36 nMol/l	3,2
CSC[C@]12CCC(=O)C=C1CC[C@@H]1[C@@H]2CC[C@]2(C)C(=O)CC[C@@H]12 [A, 19-Methylthio-4-androsten-3,17-dion]	5,50 ± 0,43 nMol/l	1,0
